Measurements from patent US7704995B2 (Exelixis, Inc., priority 2003, dated 2010).

Target: T1, Chk1 (Homo sapiens, UniProt O14757)
T1 construct: purchased Upstate Biotechnology
T1 sequence (O14757 1-476): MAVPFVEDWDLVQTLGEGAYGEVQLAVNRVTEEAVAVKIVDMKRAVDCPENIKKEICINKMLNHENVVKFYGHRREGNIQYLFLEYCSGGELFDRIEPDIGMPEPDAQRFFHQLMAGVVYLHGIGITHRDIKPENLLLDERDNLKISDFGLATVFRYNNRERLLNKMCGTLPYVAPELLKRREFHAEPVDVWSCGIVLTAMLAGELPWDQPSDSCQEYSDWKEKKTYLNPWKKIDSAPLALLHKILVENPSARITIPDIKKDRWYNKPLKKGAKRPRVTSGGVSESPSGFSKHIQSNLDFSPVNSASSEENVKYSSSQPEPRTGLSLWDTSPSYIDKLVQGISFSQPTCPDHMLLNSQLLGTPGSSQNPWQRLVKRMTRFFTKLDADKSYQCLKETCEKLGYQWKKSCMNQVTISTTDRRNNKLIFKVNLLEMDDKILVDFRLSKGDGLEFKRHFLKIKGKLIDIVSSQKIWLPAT
Assay: Chk1 kinase assay: incorporation of γ-33P ATP into immobilized myelin basic protein
Type: biochemical
Conditions: Table 11, Chk1 only; class symbols A-D; read-out: Chk1 IC50
Summary of the method: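 MBP coated on plates (20 μg/ml) was phosphorylated by Chk1 (10 nM) or Chk2 (20 nM) with γ-33P ATP plus 10 μM (Chk1) or 30 μM (Chk2) unlabeled ATP, 1 h at room temperature, 1% DMSO. Bound radioactivity was counted by scintillation after washing; IC50 or Ki derived from fitted rate data.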

| Compound | IC50 [nM] |
| --- | --- |
| Cc1ccc(F)cc1CNC(=O)c1cccc(-c2cnc(N)c(C(=O)N[C@H]3CCCNC3)n2)c1 [Example 1031, 3-amino-6-[3-({[(5-fluoro-2-methylphenyl)methyl]amino}carbonyl)phenyl]-N-[(3S)-piperidin-3-yl]pyrazine-2-carboxamide] | < 50 |
| Nc1ncc(-c2cccc(C(=O)NCc3cc(F)cc(Br)c3)c2)nc1C(=O)N[C@H]1CCCNC1 [Example 1032, 3-amino-6-[3-({[(3-bromo-5-fluorophenyl)methyl]amino}carbonyl)phenyl]-N-[(3S)-piperidin-3-yl]pyrazine-2-carboxamide] | < 50 |
| Nc1ncc(-c2cccc(C(=O)NCc3ccc(-n4cccn4)cc3)c2)nc1C(=O)N[C@H]1CCCNC1 [Example 1033, 3-amino-N-[(3S)-piperidin-3-yl]-6-{3-[({[4-(1H-pyrazol-1-yl)phenyl]methyl}amino)carbonyl]phenyl}pyrazine-2-carboxamide] | < 50 |
| Nc1ncc(-c2cccc(C(=O)NCc3cccc(-c4ccccc4)c3)c2)nc1C(=O)N[C@H]1CCCNC1 [Example 1034, 3-amino-6-(3-{[(biphenyl-3-ylmethyl)amino]carbonyl}phenyl)-N-[(3S)-piperidin-3-yl]pyrazine-2-carboxamide] | < 50 |
| Cc1ccccc1CNC(=O)c1cccc(-c2cnc(N)c(C(=O)N[C@H]3CCCNC3)n2)c1 [Example 1035, 3-amino-6-[3-({[(2-methylphenyl)methyl]amino}carbonyl)phenyl]-N-[(3S)-piperidin-3-yl]pyrazine-2-carboxamide] | < 50 |
| Cc1ccc(C)c(CNC(=O)c2cccc(-c3cnc(N)c(C(=O)N[C@H]4CCCNC4)n3)c2)c1 [Example 1036, 3-amino-6-[3-({[(2,5-dimethylphenyl)methyl]amino}carbonyl)phenyl]-N-[(3S)-piperidin-3-yl]pyrazine-2-carboxamide] | < 50 |
| Cc1cc(C)cc(CNC(=O)c2cccc(-c3cnc(N)c(C(=O)N[C@H]4CCCNC4)n3)c2)c1 [Example 1037, 3-amino-6-[3-({[(3,5-dimethylphenyl)methyl]amino}carbonyl)phenyl]-N-[(3S)-piperidin-3-yl]pyrazine-2-carboxamide] | < 50 |
| Cc1ccc(CNC(=O)c2cccc(-c3cnc(N)c(C(=O)N[C@H]4CCCNC4)n3)c2)c(C)c1 [Example 1038, 3-amino-6-[3-({[(2,4-dimethylphenyl)methyl]amino}carbonyl)phenyl]-N-[(3S)-piperidin-3-yl]pyrazine-2-carboxamide] | < 50 |
| COc1cccc(CNC(=O)c2cccc(-c3cnc(N)c(C(=O)N[C@H]4CCCNC4)n3)c2)c1 [Example 1039, 3-amino-6-[3-({[(3-methoxyphenyl)methyl]amino}carbonyl)phenyl]-N-[(3S)-piperidin-3-yl]pyrazine-2-carboxamide] | < 50 |
| Nc1ncc(-c2cccc(C(=O)NCc3ccccc3)c2)nc1C(=O)N[C@H]1CCCNC1 [Example 1040, 3-amino-6-{3-[({[phenyl]methyl}amino)carbonyl]phenyl}-N-[(3S)-piperidin-3-yl]pyrazine-2-carboxamide] | < 50 |
| COc1cc(CNC(=O)c2cccc(-c3cnc(N)c(C(=O)N[C@H]4CCCNC4)n3)c2)cc(OC)c1 [Example 1041, 3-amino-6-{3-[({[3,5-bis(methyloxy)phenyl]methyl}amino)carbonyl]phenyl}-N-[(3S)-piperidin-3-yl]pyrazine-2-carboxamide] | < 50 |
| COc1ccc(CNC(=O)c2cccc(-c3cnc(N)c(C(=O)N[C@H]4CCCNC4)n3)c2)cc1OC [Example 1042, 3-amino-6-{3-[({[3,4-bis(methyloxy)phenyl]methyl}amino)carbonyl]phenyl}-N-[(3S)-piperidin-3-yl]pyrazine-2-carboxamide] | < 50 |
